The results in this text go back to US9296775B2, “Pyrazole compounds” (Eli Lilly and Company, priority 2012, dated 2016).

SMILES strings stand for the structures.

For data set [1], the system named is male Sprague Dawley rats with STZ-induced diabetes. Description: Mixed meal tolerance test in male rats with streptozotocin induced diabetes. It is filed as in vivo, rat. Particulars: for Glucose Values 0 min. / Glucose Values 20 min. / Glucose Values 40 min. / Glucose Values 60 min. / Glucose Values 120 min. / Baseline Adjusted AUC: mean ± SE; for Baseline Adjusted AUC: glucose AUC in MTT. Here is the method:
Rats which have been administered streptozotocin (STZ) develop diabetes mellitus. Agents which modulate glucose levels in these animals are believed to be useful in the treatment of diabetes in humans.
The test compound is formulated by adding a vehicle of 1% hydroxyethylcellulose (HEC), 0.25% Tween® 80 w/ antifoam 0.05% to preweighed test compound to make a 2.5 mg/ml solution. The mixture is probe sonicated for approximately 30 seconds. The resulting solution is used as a stock solution, from which the lower concentration dose solutions are prepared by dilution with the vehicle. STZ, 45 mg/kg, is formulated by dissolving in 0.1M Citrate buffer in 3 ml aliquots and stored in the dark on ice, when not being administered. A high fat content mixed meal (Bio-Serv® Rodent Diet F3282 High Fat) comprising Fat Calories (60%), Carbohydrate Calories (26%) and Protein Calories (15%) is utilized. Single housed Sprague Dawley rats are allowed to acclimate for a period of 3 to 7 days.
In an effort to ensure that the animals have not recently fed, STZ is administered in the afternoon, approximately six hours into the light cycle (lights on 6 am, lights off 6 pm). The animals are anesthetized with isoflurane and STZ is delivered via tail vein injection. Once animals regain consciousness, they are returned to housing and allowed to recover for 7 days.
On the two days immediately prior to the meal tolerance test (MTT) all rats are given a small amount (2-4 g) of the F3282 diet, so they became acclimated to it prior to receiving it during the experiment. On the evening before the experiment, the rats are moved into clean cages and their food is removed. The following morning animals are weighed and a blood sample is taken by tail snip for glucose measurement (Abbott AlphaTrak glucometers: code 29). Animals are grouped n=6 based on fasted body weight and glucose. Thirty minutes after the test compound is orally administered, two glucose measurements are collected. Then a five gram pellet of Bio-Serv® diet 3282 is given. After 20 minutes remaining food is taken away and weighed. Blood samples are taken at 20, 40, 60 and 120 minutes for glucose measurement.

Data set [2] deals with normal glycemic C57Bl/6 mouse. Description: Oral glucose tolerance test (OGTT). The format is in vivo. The note with it: for Glucose 0 Minute: 3 h before dextrose 3 g/kg; for Glucose 0 Minute / Glucose 20 Minute / Glucose 40 Minute / Glucose 60 Minute / Glucose 120 Minute / Baseline Adjusted AUC: mean ± SE; for Glucose 20 Minute: 20 min after dextrose; for Glucose 40 Minute: 40 min after dextrose; for Glucose 60 Minute: 60 min after dextrose; for Glucose 120 Minute: 120 min after dextrose; for Baseline Adjusted AUC: glucose AUC during OGTT. Here is the method:
The test compound is formulated by adding a vehicle of 1% hydroxyethylcellulose, 0.25% Tween® 80 w/ antifoam 0.05% to preweighed test compound to make a 1 mg/ml solution. The mixture is probe sonicated for approximately 30 seconds. The resulting solution is used as a stock solution from which the lower concentration dose solutions are prepared by dilution with the vehicle.
Single housed C57Bl/6 mice are fasted overnight by removing access to food the late afternoon before test day. The following morning, the mice are weighed and a single fasting blood sample is taken by tail snip to measure glucose by glucometer (Roche AccuChek). Study groups (n=5) are determined based on fasted blood glucose and comprise preferably animals in the range of 80-100 mg/dl glucose.
After grouping, the first mouse is orally gavaged with 10 ml/kg test compound preparation and a timer started. Each subsequent animal is dosed a minute and a half apart. Three hours after the first compound treatment is started, a baseline blood sample is taken for measuring glucose (from the first animal, via tail snip). The animal is then immediately given an oral dose of 50% dextrose (Hospira) at 3 g/kg. Blood samples are taken for glucose, exactly a minute and half apart, by tail vein so that blood is collected in each animal at 20, 40, 60 and 120 minutes after the dextrose dose.

[3] abbreviates: result in words, Example 1 10 and 30 mg/kg, Acarbose 60 mg/kg.

For `C[C@H]1O[C@H](O[C@H]2[C@H](O)[C@@H](O)[C@@H](O[C@H]3[C@H](O)[C@@H](O)C(O)O[C@@H]3CO)O[C@@H]2CO)[C@H](O)[C@@H](O)[C@@H]1N[C@H]1C=C(CO)[C@@H](O)[C@H](O)[C@H]1O` (stereo partly shown) [Acarbose, reference compound], in data set [1] (60 mg/kg oral), the “Glucose Values 0 min.” value worked out at 124 ± 16.9 mg/dL, the “Glucose Values 20 min.” value was 181 ± 22.8 mg/dL, the “Glucose Values 40 min.” value worked out at 301.3 ± 51.2 mg/dL and the “Glucose Values 60 min.” value came out at 371.5 ± 63.9 mg/dL. In addition, in data set [1] (60 mg/kg oral), the “Glucose Values 120 min.” value was found to be 433.7 ± 83 mg/dL and the “Baseline Adjusted AUC” value was determined as 23877 ± 4649. In data set [1] (setting [3]), the “glucose baseline adjusted AUCs in the MTT” value is “significantly decreases” and the “glucose in the MTT compared to the vehicle controls” value is “did not significantly decrease”.
Consider `Cc1cc(/C=C/CCN2CCCC3(CCNCC3)C2)ccc1Cc1c(O[C@@H]2O[C@H](CO)[C@@H](O)[C@H](O)[C@H]2O)n[nH]c1C(C)C` [Example 1, 4-{4-[(1E)-4-(2,9-diazaspiro[5.5]undec-2-yl)but-1-en-1-yl]-2-methylbenzyl}-5-(propan-2-yl)-1H-pyrazol-3-yl beta-D-glucopyranoside], for which, in data set [1] (10 mg/kg oral), the “Glucose Values 0 min.” value was determined as 139 ± 16.1 mg/dL, the “Glucose Values 20 min.” value amounted to 221.2 ± 26.3 mg/dL, the “Glucose Values 40 min.” value turned out to be 268.7 ± 29 mg/dL and the “Glucose Values 60 min.” value is 330 ± 36.7 mg/dL. Also, in data set [1] (10 mg/kg oral), the “Glucose Values 120 min.” value was found to be 490.8 ± 39.2 mg/dL and the “Baseline Adjusted AUC” value was 22432 ± 2234. Besides, in data set [1] (30 mg/kg oral), the “Glucose Values 0 min.” value worked out at 137.4 ± 26.9 mg/dL, the “Glucose Values 20 min.” value worked out at 195.4 ± 44.8 mg/dL, the “Glucose Values 40 min.” value is 232 ± 52.2 mg/dL and the “Glucose Values 60 min.” value was 263.9 ± 62.2 mg/dL. Besides, in data set [1] (30 mg/kg oral), the “Glucose Values 120 min.” value came out at 355.3 ± 73.2 mg/dL and the “Baseline Adjusted AUC” value came to 14649 ± 3673. In data set [2] (0.3 mg/kg oral), the “Glucose 0 Minute” value came to 78 ± 4.2 mg/dL, the “Glucose 20 Minute” value stood at 185 ± 13.7 mg/dL, the “Glucose 40 Minute” value came out at 197 ± 14.7 mg/dL and the “Glucose 60 Minute” value is 164 ± 6.3 mg/dL. Further, in data set [2] (0.3 mg/kg oral), the “Glucose 120 Minute” value was determined as 121 ± 11.8 mg/dL and the “Baseline Adjusted AUC” value is recorded as 5400 ± 519^. Moreover, in data set [2] (1 mg/kg oral), the “Glucose 0 Minute” value is 76 ± 3.3 mg/dL, the “Glucose 20 Minute” value worked out at 147 ± 8.3 mg/dL, the “Glucose 40 Minute” value turned out to be 171 ± 11.1 mg/dL and the “Glucose 60 Minute” value came to 162 ± 5.8 mg/dL. Moreover, in data set [2] (1 mg/kg oral), the “Glucose 120 Minute” value was 109 ± 7.3 mg/dL and the “Baseline Adjusted AUC” value is given as 4158 ± 374^. In addition, in data set [2] (3 mg/kg oral), the “Glucose 0 Minute” value came out at 72 ± 2.6 mg/dL, the “Glucose 20 Minute” value turned out to be 133 ± 7.1 mg/dL, the “Glucose 40 Minute” value was found to be 150 ± 7.5 mg/dL and the “Glucose 60 Minute” value stood at 155 ± 7.2 mg/dL. For the same molecule, in data set [2] (3 mg/kg oral), the “Glucose 120 Minute” value was 115 ± 10 mg/dL and the “Baseline Adjusted AUC” value was determined as 3606 ± 421. In data set [2] (10 mg/kg oral), the “Glucose 0 Minute” value was 78 ± 5.4 mg/dL, the “Glucose 20 Minute” value is 124 ± 1.2 mg/dL, the “Glucose 40 Minute” value came to 137 ± 5.4 mg/dL and the “Glucose 60 Minute” value was found to be 138 ± 6.1 mg/dL. Further, in data set [2] (10 mg/kg oral), the “Glucose 120 Minute” value was determined as 114 ± 4.3 mg/dL and the “Baseline Adjusted AUC” value came to 2693 ± 309. Moreover, in data set [2] (0.3-10 mg/kg, result in words), the “average maximum concentration of plasma glucose (Cmax) during the OGTT” value is given as “dose dependently decreases” and the “average time that it takes for glucose to reach maximum concentration (Tmax)” value is recorded as “increasing”.
